Tests used:
Type in all cases: functional
Mus musculus [1] = assay: Tested in vivo antitumor activity at a dose of subcutaneous 33 mg/kg/injection in Madison 109 murine lung carcinoma (M109)
Mus musculus [2] = assay: Tested in vivo antitumor activity at a dose of subcutaneous 48 mg/kg/injection relative to paclitaxel in Madison 109 murine lung carcinoma (M109)
Mus musculus [3] = assay: Tested in vivo antitumor activity at a dose of subcutaneous 18 mg/kg/injection relative to paclitaxel in Madison 109 murine lung carcinoma (M109)
Mus musculus [4] = assay: Tested in vivo antitumor activity at a dose of subcutaneous 40 mg/kg/injection in Madison 109 murine lung carcinoma (M109)
Mus musculus [5] = assay: Tested in vivo antitumor activity at a dose of subcutaneous 24 mg/kg/injection relative to paclitaxel in Madison 109 murine lung carcinoma (M109)

SMILES: CCOC(=O)O[C@@H](C(=O)O[C@H]1C[C@@]2(O)[C@@H](OC(=O)c3ccccc3)[C@@H]3[C@]4(OC(C)=O)CO[C@@H]4C[C@H](OC(=O)Cc4ccccc4OP(=O)([O-])O)[C@@]3(C)C(=O)[C@H](OC(C)=O)C(=C1C)C2(C)C)[C@@H](NC(=O)c1ccccc1)c1ccccc1.[Na+]
- T-C (Mus musculus [1]): 1.5 days (optimal dose)-1
- T-C (Mus musculus [2]): 15.8 days (optimal dose)-1

SMILES: CCOC(=O)O[C@@H](C(=O)O[C@H]1C[C@@]2(O)[C@@H](OC(=O)c3ccccc3)[C@@H]3[C@]4(OC(C)=O)CO[C@@H]4C[C@H](OC(=O)CC(C)(C)c4c(C)cc(C)cc4OP(=O)([O-])O)[C@@]3(C)C(=O)[C@H](OC(C)=O)C(=C1C)C2(C)C)[C@@H](NC(=O)c1ccccc1)c1ccccc1.[Na+]
- T-C (Mus musculus [3]): 12.3 days (optimal dose)-1
- T-C (Mus musculus [4]): 18 days (optimal dose)-1

SMILES: CCOC(=O)O[C@@H](C(=O)O[C@H]1C[C@@]2(O)[C@@H](OC(=O)c3ccccc3)[C@@H]3[C@]4(OC(C)=O)CO[C@@H]4C[C@H](OC(=O)c4ccccc4COP(=O)([O-])O)[C@@]3(C)C(=O)[C@H](OC(C)=O)C(=C1C)C2(C)C)[C@@H](NC(=O)c1ccccc1)c1ccccc1.[K+]
- T-C (Mus musculus [5]): 10.8 days (optimal dose)-1
- T-C (Mus musculus [4]): 17 days (optimal dose)-1

Source: ChEMBL document CHEMBL1152077, “Novel, water-soluble phosphate derivatives of 2-ethoxy carbonylpaclitaxel as potential prodrugs of paclitaxel: Synthesis and antitumor evaluation” (1995)
